Results as given in ChEMBL document CHEMBL1821642, “Discovery of 7-hydroxy-6-methoxy-2-methyl-3-(3,4,5-trimethoxybenzoyl)benzo[b]furan (BNC105), a tubulin polymerization inhibitor with potent antiproliferative and tumor vascular disrupting properties” (J Med Chem, 2011).
Active and inactive are the calls of the source. No cut-off for these calls is given here.

Columns and labels:
786-0 [1] = assay: Antiproliferative activity against MDR-1 overexpressing human 786-0 cells; format: functional, cell-based
786-0 [2] = assay: Antiproliferative activity against MDR-1 overexpressing human 786-0 cells in presence of MDR1 inhibitor verapamil; format: functional, cell-based
[3] = Inhibition of tubulin polymerization by spectrophotometry
MCF7 = assay: Antiproliferative activity against human MCF7 cells assessed after 48 hrs by spectrophotometry; format: functional, cell-based; conditions: MCF7, 48 h
HUVEC [4] = assay: Antiproliferative activity against HUVEC grown in absence of growth factors after 48 hrs by spectrophotometry; format: functional, cell-based; conditions: Homo sapiens
HUVEC [5] = assay: Antiproliferative activity against HUVEC grown in presence of growth factors after 48 hrs by spectrophotometry; format: functional, cell-based; conditions: Homo sapiens
HUVEC [6] = assay: Selectivity ratio of IC50 for HUVEC grown in absence of growth factors to IC50 for HUVEC grown in presence of growth factors; format: functional, Homo sapiens
[7] = Aqueous solubility of the compound; format: physicochemical; conditions: buffer
MDA-MB-231 [8] = assay: Antitumor activity against human MDA-MB-231 xenografted in mouse assessed as tumor growth inhibition at 10 mg/kg administered on day 1 and 5; format: functional, organism-based; design: dose 10 mg/kg
MDA-MB-231 [9] = assay: Antitumor activity against human MDA-MB-231 xenografted in mouse assessed as tumor growth inhibition at 40 mg/kg administered on day 1 and 8 measured after 70 days; format: functional, organism-based; design: dose 40 mg/kg
MDA-MB-231 [10] = assay: Antitumor activity against human MDA-MB-231 xenografted in mouse assessed as tumor growth inhibition at 150 mg/kg administered on day 1 and 5; format: functional, organism-based; design: dose 150 mg/kg
BT-549 = assay: Antiproliferative activity against human BT549 after 48 hrs by spectrophotometry; format: functional, cell-based; conditions: BT-549, 48 h
AU565 = assay: Antiproliferative activity against human AU565 after 48 hrs by spectrophotometry; format: functional, cell-based; conditions: AU565, 48 h
Calu-6 = assay: Antiproliferative activity against human Calu6 after 48 hrs by spectrophotometry; format: functional, cell-based; conditions: Calu-6, 48 h
Plasma = assay: Plasma protein binding in Sprague-Dawley rat at 6 umol/kg, iv; format: ADME, cell-free
Rattus norvegicus [11] = assay: Half life in Sprague-Dawley rat at 6 umol/kg, iv; format: ADME, organism-based; conditions: in vivo
A-431 = assay: Antiproliferative activity against human A431 after 48 hrs by spectrophotometry; format: functional, cell-based; conditions: A-431, 48 h
DU-145 = assay: Antiproliferative activity against human DU145 after 48 hrs by spectrophotometry; format: functional, cell-based; conditions: DU-145, 48 h
Rattus norvegicus [12] = assay: Volume of distribution at steady state in Sprague-Dawley rat at 6 umol/kg, iv; format: ADME, organism-based; conditions: in vivo
[13] = Antiproliferative activity against human U87MG after 48 hrs by spectrophotometry; format: functional, U-87MG ATCC; conditions: U-87 MG
A2780 = assay: Cytotoxicity against human A2780 cells; format: functional, cell-based
[14] = Antiproliferative activity against human HAAE1 grown in absence of growth factors after 48 hrs by spectrophotometry; format: functional
[15] = Antiproliferative activity against human HAAE1 grown in presence of growth factors after 48 hrs by spectrophotometry; format: functional
A-375 = assay: Antiproliferative activity against human A375 after 48 hrs by spectrophotometry; format: functional, cell-based; conditions: A-375, 48 h
[16] = Cytotoxicity against human A2780cis cells; format: functional, cell-based; conditions: A2780cisR
[17] = Cytotoxicity against human A2780/ADR cells; format: functional, cell-based
LoVo = assay: Antiproliferative activity against human LoVo after 48 hrs by spectrophotometry; format: functional, cell-based
[18] = Drug uptake in tumor of MDA-MB-231 breast cancer BALB/c mouse model at 1 to 150 mg/kg, iv measured after 24 hrs; format: ADME, organism-based; design: dose 1-150 mg/kg, route intravenous; conditions: in vivo
SK-OV-3 = assay: Antiproliferative activity against human SKOV3 after 48 hrs by spectrophotometry; format: functional, cell-based; conditions: SK-OV-3, 48 h
MDA-MB-231 [19] = assay: Antiproliferative activity against human MDA-MB-231 after 48 hrs by spectrophotometry; format: functional, cell-based; conditions: MDA-MB-231, 48 h

Structure (SMILES)	IC50 [3]	IC50 (MCF7)	IC50 (HUVEC [4])	IC50 (HUVEC [5]; read-out: IC50)	Ratio IC50 (HUVEC [6])	other results
CC[C@]1(O)C[C@H]2CN(CCc3c([nH]c4ccccc34)[C@@](C(=O)OC)(c3cc4c(cc3OC)N(C=O)[C@H]3[C@@](O)(C(=O)OC)[C@H](OC(C)=O)[C@]5(CC)C=CCN6CC[C@]43[C@@H]65)C2)C1 [VINCRISTINE]	–	–	–	–	–	IC50 (786-0 [1]): 37 nM; IC50 (786-0 [2]): 1.2 nM
COc1ccc(-c2sccc2C(=O)c2cc(OC)c(OC)c(OC)c2)cc1O	1000 nM	–	–	–	–	–
COc1ccc2c(C(=O)c3cc(OC)c(OC)c(OC)c3)c(-c3ccc(O)cc3)oc2c1	2300 nM	48 nM	34 nM	30 nM	1.1	–
CC[C@]1(O)C[C@@H]2CN(CCc3c([nH]c4ccccc34)[C@@](C(=O)OC)(c3cc4c(cc3OC)N(C)[C@H]3[C@@](O)(C(=O)OC)[C@H](OC(C)=O)[C@]5(CC)C=CCN6CC[C@]43[C@@H]65)C2)C1 [VINBLASTINE]	–	–	–	–	–	IC50 (786-0 [1]): 4.5 nM; IC50 (786-0 [2]): 0.31 nM
COc1cc(C(=O)c2c(C#N)oc3c(O)c(OC)ccc23)cc(OC)c1OC	–	–	3 nM	1.1 nM	2.7	–
COc1cc(C(=O)c2c(-c3cnn(C)c3)oc3c(O)c(OC)ccc23)cc(OC)c1OC	1300 nM	1 nM	0.7 nM	0.4 nM	1.8	–
COc1cc(C(=O)c2c(N)oc3c(O)c(OC)ccc23)cc(OC)c1OC	–	–	8.8 nM	1.9 nM	4.6	–
COc1cc(C(=O)c2c(C)oc3c(OP(=O)([O-])[O-])c(OC)ccc23)cc(OC)c1OC.[Na+].[Na+]	–	–	–	–	–	solubility [7]: soluble; growth inhibition (GI) (MDA-MB-231 [8]): Active; growth inhibition (GI) (MDA-MB-231 [9]): Active
COc1ccc2c(C(=O)c3cc(OC)c(OC)c(OC)c3)c(-c3ccc4c(ccn4C)c3)oc2c1	1300 nM	–	32 nM	41 nM	0.8	–
COc1cc(C(=O)c2coc3c(O)c(OC)ccc23)cc(OC)c1OC	–	45 nM	322 nM	83 nM	–	–
COc1ccc2c(C(=O)c3cc(OC)c(OC)c(OC)c3)coc2c1	1600 nM	55 nM	63 nM	45 nM	1.4	–
COc1ccc(/C=C\c2cc(OC)c(OC)c(OC)c2)cc1OP(=O)(O)O	–	–	–	–	–	growth inhibition (GI) (MDA-MB-231 [10]): Active
COc1cc(C(=O)c2c(-c3cnn(C)c3)oc3c(OC(C)C)c(OC)ccc23)cc(OC)c1OC	–	42 nM	419 nM	665 nM	0.6	–
COc1cc(C(=O)c2c(NCCN(C)C)oc3c(O)c(OC)ccc23)cc(OC)c1OC	–	–	36 nM	29 nM	1.2	–
COc1ccc2c(C(=O)c3cc(OC)c(OC)c(OC)c3)c(-c3ccc(OC)nc3)oc2c1	–	71 nM	27 nM	45 nM	0.6	–
CC(=O)O[C@H]1C(=O)[C@@]2(C)[C@H]([C@H](OC(=O)c3ccccc3)[C@]3(O)C[C@H](OC(=O)[C@H](O)[C@@H](NC(=O)c4ccccc4)c4ccccc4)C(C)=C1C3(C)C)[C@]1(OC(C)=O)CO[C@@H]1C[C@@H]2O [PACLITAXEL]	–	–	–	–	–	IC50 (786-0 [1]): 31 nM; IC50 (786-0 [2]): 4 nM
COc1ccc2c(C(=O)c3cc(OC)c(OC)c(OC)c3)c(Br)oc2c1	–	–	309 nM	510 nM	0.6	–
COc1ccc(/C=C\c2cc(OC)c(OC)c(OC)c2)cc1O [COMBRETASTATIN A4]	–	–	3.9 nM	–	–	IC50 (BT-549): 3.5 nM; IC50 (AU565): 4.4 nM; IC50 (Calu-6): 0.94 nM; PPB (Plasma): 98.9%; IC50 (HUVEC [5]): 3.6 nM; t1/2 (Rattus norvegicus [11]): 0.7 h; IC50 (A-431): 188 nM; IC50 (DU-145): 4 nM; Vdss (Rattus norvegicus [12]): 7.3 L/kg
COc1ccc2c(C(=O)c3cc(OC)c(OC)c(OC)c3)c(-c3ccc(OC)c(N)c3)oc2c1	1900 nM	26 nM	44 nM	32 nM	1.4	–
COc1cc(C(=O)c2c(NCCO)oc3c(O)c(OC)ccc23)cc(OC)c1OC	–	–	2.9 nM	3.1 nM	0.9	–
COc1ccc(-c2oc3c(O)c(OC)ccc3c2C(=O)c2cc(OC)c(OC)c(OC)c2)cc1O	800 nM	4 nM	3.4 nM	1.7 nM	2	–
COc1ccc2c(C(=O)c3cc(OC)c(OC)c(OC)c3)c(N3CCN(C)CC3)oc2c1	–	215 nM	405 nM	484 nM	0.8	–
COc1cc(C(=O)c2c(-c3ccco3)oc3c(O)c(OC)ccc23)cc(OC)c1OC	8700 nM	0.6 nM	3.4 nM	3.6 nM	0.9	–
COc1cc(C(=O)c2c(-n3cccc3)oc3c(O)c(OC)ccc23)cc(OC)c1OC	–	–	3.3 nM	–	–	–
COc1cc(C(=O)c2c(-c3cccs3)oc3c(O)c(OC)ccc23)cc(OC)c1OC	–	0.5 nM	0.36 nM	0.31 nM	1.2	–
COc1cc(C(=O)c2c(/C=C/C(N)=O)oc3c(O)c(OC)ccc23)cc(OC)c1OC	–	–	2.3 nM	2.6 nM	0.9	–
COc1cc(C(=O)c2c(C)oc3c(O)c(OC)ccc23)cc(OC)c1OC	3000 nM	2.4 nM	25 nM	0.31 nM	–	IC50 [13]: 0.41 nM; IC50 (BT-549): 0.34 nM; IC50 (A2780): 0.03 nM; IC50 (AU565): 5.8 nM; solubility [7]: Insoluble; IC50 [14]: 12 nM; IC50 [15]: 0.1 nM; IC50 (Calu-6): 0.16 nM; IC50 (A-375): 1.5 nM; IC50 [16]: 0.01 nM; t1/2 (Rattus norvegicus [11]): 3.5 h; IC50 [17]: 0.06 nM; IC50 (LoVo): 0.24 nM; IC50 (DU-145): 0.36 nM; Vdss (Rattus norvegicus [12]): 7.1 L/kg; Drug uptake [18]: 64%; IC50 (SK-OV-3): 0.59 nM; IC50 (MDA-MB-231 [19]): 0.63 nM
COC(=O)/C=C/c1oc2c(O)c(OC)ccc2c1C(=O)c1cc(OC)c(OC)c(OC)c1	–	–	2.3 nM	0.38 nM	6	–
